For two molecules, melting point results are on record in patent publication US7553798B2, “Heterocyclic carboxamides with microbiocidal activity” (Syngenta Crop Protection, Inc., priority 2004, dated 2009).

Broadly, the melting point is the temperature of the solid-liquid transition.

`Cn1cc(C(=O)Nc2ccccc2-c2ccc(C#CC(C)(C)C)s2)c(C(F)(F)F)n1` [Compound 1ai.098, 1-methyl-3-trifluoromethyl-1H-pyrazole-4-carboxylic acid {2-[5-(3,3-dimethyl-but-1-ynyl)-thiophen-2-yl]-phenyl}-amide] registered a melting point of 122 to 125 °C.
`Cn1cc(C(=O)Nc2ccccc2-n2cc(C#CC(C)(C)C)cn2)c(C(F)F)n1` [Compound 1ar.099, 3-difluoromethyl-1-methyl-1H-pyrazole-4-carboxylic acid {2-[4-(3,3-dimethyl-but-1-ynyl)-pyrazol-1-yl]-phenyl}-amide] came in with a melting point of 145 to 148 °C.
